The values that follow come from US10106582B2, “Complex-formation-modulating agents and uses therefor” (Factor Therapeutics Limited, priority 2012, dated 2018).

For the assay, the system named is MCF-7 cells. Nature of the assay: 3D Matrigel growth assay of MCF-7 tumor spheroids. In kind it is cell-based, human. The source says:
FIG. 7 is a photographic and graphical representation showing MCF-7 3D cell growth in response to peptide antagonists. MCF-7 cells suspended in media containing 1% serum and 2.5% Matrigel (Matrigel media) were layered onto a thin layer of 100% Matrigel. Spheroids were allowed to form in Matrigel media containing VN, TRI or TRI supplemented with peptides P7 and P8. Cells were allowed to grow for 14 days with media+proteins changed every 3 days. (A) Phase contrast and fluorescence microscopy was used to obtain images of the spheroids treated with 90 nM P7, P8 or P7+8. The fluorescent images were subjected to analysis using Image J to calculate spheroid sizes. The images post-ImageJ analyses are depicted in the bottom panel of A. All the images depicted are representative images obtained from triplicate experiments with treatments tested in duplicates in each replicate experiment. Scale bar denotes 100 μm. (B) Scatter plot depicts mean spheroid size (μm^2) at Day 14 for each treatment, calculated using Image-J (90 nM peptide treatments are depicted here). Each data point in the graph is the average size of all spheroids present in a single field of view at 40× magnification. ** denotes p<0.01 and * denotes p<0.05. (C) To measure cell viability/proliferation the 3D culture was treated on Day 14 with 5% Alamar Blue dye for 4 hours and fluorescence intensities were recorded. Error bars indicate SEM. ** denotes p<0.01 Vs TRI and * denotes p<0.05 Vs TRI. The experiment was repeated twice with treatments tested in duplicate wells in each replicate experiment. TRI=IGF-I:IGFBP-5:VN trimeric complex (equimolar at 10 nM concentrations).
To closely mimic in vivo conditions, cells were grown in a 3D matrix (Matrigel) closely resembling in vivo extracellular matrix physiology. MCF-7 cells suspended in growth media containing 1% serum and 2.5% Matrigel (Matrigel media) were layered onto a thin layer of 100% Matrigel. Tumor spheroids were allowed to form for 3 days after which spent media was replenished with Matrigel media containing VN only, trimeric complex, or trimeric complex supplemented with increasing concentrations of peptides (P7, P8 or P7+P8). Cells were allowed to grow for additional 11 days with media+proteins changed every 3 days. Spheroid morphology was assessed using phase-contrast microscopy and cell viability was measured using AlamarBlue, a fluorescent metabolic dye.

In the case of “LFSSEESNLGANNYDDYRMDWL (listed as Homo sapiens) [Peptide P7, human VN motif 7 mimic]”, the “TRI-stimulated cell viability (AlamarBlue)” value (90 nM peptide, Day 14, 3D Matrigel culture) was “significantly inhibit”. Further, the “Size of TRI-treated tumor spheroids (phase-contrast microscopy)” value (increasing concentrations of peptides, Matrigel 3D culture, 14 days) is recorded as “decrease with increasing concentrations”.
